Results as given in patent US20020131996A1, “Methods and compositions for blocking microbial adherence to eukaryotic cells” (priority 2001, published 2002).

Legend:
Format in all cases: in vivo, human
bacterial vaginosis = assay: Amelioration of bacterial vaginosis with isoleucine powder applied in the vagina
Experimental: In this example isoleucine was administered locally to the vagina to treat the symptoms of bacterial vaginosis. By inhibiting the adherence of bacteria to the wall of the vagina, microbial growth, inflammation, and associated signs of malodorous discharge and symptoms such as pruritis can be treated. A person, with a normal menstrual cycle and in excellent health, experienced vaginal irritation and malodorous discharge associated with their cycle, generally beginning several days prior to the onset of their period. Isoleucine was self-administered as a powder locally within the vaginal cavity digitally, twice a day. Within 2 days symptoms of vaginosis disappeared. Isoleucine therapy was continued for several days following termination of menstrual discharge, and then stopped. […] Isoleucine was again administered during the following months, cycled as described initially.

[1] = tested on: bacteria adherent to gingival epithelial cells; assay: Microbial adherence to gingival epithelial cells in volunteers with low grade gingivitis (Giemsa-stained gingival scrapings)
Excerpt: In this example isoleucine was applied as a pure crystalline powder directly to the gums. The individuals were normal human volunteers. Each individual had clinically evident low grade gingivitis, as determined by the puffiness of the gingival margin and a history of some bleeding during normal dental brushing. Oral health care comprised twice daily flossing and dental brushing with a non-medicated toothpaste. No oral antiseptic was used. The individuals were not taking antibiotics. Isoleucine was applied by application of powder on the fingertip to the outer and inner gum margins of the upper and lower jaws. The entirety of the gingival surface was covered manually, twice daily. The AM application was performed following breakfast, immediately after brushing. The PM application was conducted prior to retiring for sleep.
Gingival surface was gently scrapped with the side of a rectangular glass cover slip and the material described was applied to a glass microscope slide and air-dried. The slide was stained in concentrated Giemsa stain for 1 min, then destained in water for 5 min. The slide was then air-dried and mounted with a cover slip cemented with Permount. Slides were examined by light microscopy at 100×and 400×magnification. Under these staining conditions bacteria were clearly visualized as dark blue particles against the pale gray epithelial cells.
Gingival scrapings were taken in the morning prior to normal oral care and prior to eating. Prior to scraping, the subject rinsed the mouth with a cup of water to wash free particulate matter, unattached cells, and bacteria.
Scrapings were taken 3 days and 1 day prior to isoleucine administration and 1, 3, 5, and 7 days during isoleucine application. […] The bacteria adherent were represented by several different species, distinguished by morphology. […] At least 200 bacteria were counted on the average on each cell.

[2] = tested on: infectious diarrhea (diarrheal agent not known); assay: Treatment of infectious diarrhea with oral isoleucine solution
Experimental: In this example isoleucine was administered to treat infectious diarrhea. In this example three individuals were naturally innoculated by a common agent. The nature of the diarrheal agent is not known. The duration of diarrhea was consistent with an infectious etiology. Isoleucine was utilized based on the hypothesis that reduction in microbial adherence would likely limit the continued re-infection of the gut wall by the agent, and/or prevent attachment of opportunistic commensal organisms.
Three members of a family traveling in the Middle East (MZ, BZ, JZ) contracted watery diarrhea, associated with food intolerance, following a meal they shared at a restaurant. Each individual had been in excellent health without prior history of GI complaints. All were unmedicated, including aspirin or antihistamines. […] Diarrhea was watery, without gross blood, minimal mucous, slight fever with chills, no nausea, and persistence of hunger. Peristalsis was vigorous and increased by ingestion of food. Each individual was placed on a diet restricted to clear liquids (juices and soda), digestible carbohydrates (bread, rice, candy). No medications were administered.
Six days after ingestion of the diarrheal agent, one individual was begun on oral isoleucine (ILE) therapy, while the other two continued on restricted diets. ILE (#E-2025 Bachem, lot 511191) was dissolved in distilled water to 0.001%. One glass of ILE solution (about 250 ml) was consumed every several hours. A total of about 4 liters was consumed over {fraction (3 1/2)}days. A reduction in stool frequency was noted within 12 hours of initiation of ILE therapy.

[3] = tested on: irritable bowel syndrome (IBS); assay: Amelioration of irritable bowel syndrome with isoleucine in yogurt
Experimental: In this example isoleucine was administered to individuals who experienced irritable bowel syndrome (IBS). IBS is a loosely defined condition associated with bowel discomfort including abdominal bloating, nausea, pain, and a sense of incomplete bowel movements. The etiology underlying IBS is unknown. It is our hypothesis that IBS results from adherence of certain “pathogenic” commensal organisms to the epithelial lining of certain segments of the GI tract, resulting in disturbance of normal host-bacteria relationships. […] Two women, each in their mid-50's, presented with a history of IBS of over 20 years, in each case. In each, IBS was characterized by a sense of bloating experienced after eating cooked or raw vegetables, fruits, and meat. Each individual experienced urgency to move her bowels several times a day to an extent that often awakened the individuals from sleep. Bloating was accompanied by abdominal discomfort, described as mild cramps. Individuals felt “gassy” most of the day. Each individual was given isoleucine, 1 tsp, twice a day, each dose mixed in ½cup of yogurt. The yogurt was included to promote reinoculation of the GI tract with probiotic “good” bacteria. In each case, it was known from previous experience that yogurt itself had little effect on the IBS experienced by these individuals. Within 2 days of isoleucine administration, bloating, urgency to defecate, and gassiness had disappeared. Both individuals described the state of their bowel function as “normal”, for the first time in 20 years. […] Each was then withdrawn from isoleucine, and provided yogurt unsupplemented with isoleucine. Within about 2 days both women recorded a reappearance of the former symptoms of IBS.

[4] = Day 1 of isoleucine powder applied to gums twice daily
[5] = Day 3 of isoleucine powder applied to gums twice daily
[6] = Day 7 of isoleucine powder applied to gums twice daily

Compound: CC[C@H](C)[C@H](N)C(=O)O [isoleucine]
- Symptoms following cessation of isoleucine administration (bacterial vaginosis; after cessation): remained symptom free
- Outcome of chronic vaginosis based on symptoms and signs (bacterial vaginosis; cycled administration during following months): effectively cured
- Time to disappearance of symptoms of vaginosis (bacterial vaginosis; one person, powder in the vaginal cavity twice a day): ≤ 2 days
- Change in number of epithelial cells covered with a dense coat of bacteria ([1]; Day 1 following initiation of isoleucine application): little change
- Gingival epithelial cells with 0 Bacteria [1, 4]: 0 % cells
- Gingival epithelial cells with 1-10 Bacteria [1, 4]: 10 % cells
- Gingival epithelial cells with 10-100 Bacteria [1, 4]: 10 % cells
- Gingival epithelial cells with Contiguous lawn of bacteria [1, 4]: 80 % cells
- Adherent bacteria in gingival smears ([1]; Day 3): dramatic reduction
- Microcolonies (contiguous groupings of greater than 4 organisms) on cells ([1]; Day 3): Few
- Neutrophils in gingival smear (sign of inflammation) ([1]; Day 3): No neutrophils were evident
- Total adherent bacteria per cell (most cells) ([1]; Day 3): < 100
- Cells fully covered with bacteria, of 100 cells examined ([1]; Day 3, of 100 cells examined): 40
- Gingival epithelial cells with 0 Bacteria [1, 5]: 15 % cells
- Gingival epithelial cells with 1-10 Bacteria [1, 5]: 15 % cells
- Gingival epithelial cells with 10-100 Bacteria [1, 5]: 30 % cells
- Gingival epithelial cells with Contiguous lawn of bacteria [1, 5]: 40 % cells
- Breath as described by an examiner in the AM prior to oral hygiene ([1]; Day 7): free of odor
- Gingival epithelial cells with 0 Bacteria [1, 6]: 80 % cells
- Gingival epithelial cells with 1-10 Bacteria [1, 6]: 15 % cells
- Gingival epithelial cells with 10-100 Bacteria [1, 6]: 0 % cells
- Gingival epithelial cells with Contiguous lawn of bacteria (fully covered) [1, 6]: 5 % cells
- Shortening of the duration of diarrhea ([2]; MZ versus two untreated family members (BZ, JZ)): approximately three
- Stools passed on the 3rd day of ILE therapy ([2]; individual, 3rd day): no stools were passed
- Food tolerance ([2]; individual, by the 3rd day): cheese and chicken tolerated
- Stool by day 4 following ILE treatment ([2]; individual, day 4): a normal stool was passed
- Time to reduction in stool frequency after initiation of ILE therapy ([2]; one individual, 0.001% ILE in distilled water, oral, begun six days after ingestion of agent): ≤ 12 h
- Response during maintenance on isoleucine ([3]; maintained for 1 month): consistent response
- State of bowel function as described by the individuals ([3]; two women on isoleucine in yogurt): normal
- Time to disappearance of bloating, urgency to defecate, and gassiness ([3]; two women, isoleucine 1 tsp twice a day in 1/2 cup yogurt): ≤ 2 days
- Time to reappearance of former IBS symptoms after withdrawal from isoleucine ([3]; yogurt unsupplemented with isoleucine): about 2 days
